The subject of this data set is CCRIS mutagenicity, Ames/micronucleus/aberration tests. In words: CCRIS mutagenicity studies.
Where [1] appears, read: Test System: AMES SALMONELLA TYPHIMURIUM, Strain/Indicator: TA97, Metabolic Activation: HAMSTER, LIVER, S-9, AROCLOR 1254 (10%), Method: PREINCUBATION
Where [2] appears, read: Test System: AMES SALMONELLA TYPHIMURIUM, Strain/Indicator: TA97, Metabolic Activation: RAT, LIVER, S-9, AROCLOR 1254 (10%), Method: PREINCUBATION
The mark [3] stands for this setting: Test System: AMES SALMONELLA TYPHIMURIUM, Strain/Indicator: TA98, Metabolic Activation: HAMSTER, LIVER, S-9, AROCLOR 1254 (10%), Method: PREINCUBATION
Setting [4] is: Test System: AMES SALMONELLA TYPHIMURIUM, Strain/Indicator: TA98, Metabolic Activation: RAT, LIVER, S-9, AROCLOR 1254 (10%), Method: PREINCUBATION
The mark [5] stands for this setting: Test System: AMES SALMONELLA TYPHIMURIUM, Strain/Indicator: TA100, Metabolic Activation: HAMSTER, LIVER, S-9, AROCLOR 1254 (10%), Method: PREINCUBATION
[6] abbreviates: Test System: AMES SALMONELLA TYPHIMURIUM, Strain/Indicator: TA100, Metabolic Activation: NONE, Method: PREINCUBATION
Where [7] appears, read: Test System: AMES SALMONELLA TYPHIMURIUM, Strain/Indicator: TA100, Metabolic Activation: RAT, LIVER, S-9, AROCLOR 1254 (10%), Method: PREINCUBATION
[8] abbreviates: Test System: AMES SALMONELLA TYPHIMURIUM, Strain/Indicator: TA1535, Metabolic Activation: HAMSTER, LIVER, S-9, AROCLOR 1254 (10%), Method: PREINCUBATION
[9] abbreviates: Test System: AMES SALMONELLA TYPHIMURIUM, Strain/Indicator: TA1535, Metabolic Activation: NONE, Method: PREINCUBATION
Where [10] appears, read: Test System: AMES SALMONELLA TYPHIMURIUM, Strain/Indicator: TA1535, Metabolic Activation: RAT, LIVER, S-9, AROCLOR 1254 (10%), Method: PREINCUBATION

Calls of active or inactive are those of the source. How the calls were made is not given here.

On to `CCN(CC)c1ccc2c(-c3ccccc3C(=O)O)c3ccc(=[N+](CC)CC)cc-3oc2c1`, for which the mutagenic call runs as follows: under setting [1], “inactive; negative”; (Test System: AMES SALMONELLA TYPHIMURIUM, Strain/Indicator: TA97, Metabolic Activation: HAMSTER, LIVER, S-9, AROCLOR 1254 (30%), Method: PREINCUBATION) “inactive; negative”; (Test System: AMES SALMONELLA TYPHIMURIUM, Strain/Indicator: TA97, Metabolic Activation: NONE, Method: PREINCUBATION) “inactive; negative”; under setting [2], “inactive; negative”; (Test System: AMES SALMONELLA TYPHIMURIUM, Strain/Indicator: TA97, Metabolic Activation: RAT, LIVER, S-9, AROCLOR 1254 (30%), Method: PREINCUBATION) “inactive; negative”; under setting [3], “inactive; negative”. Moreover, the mutagenic call runs as follows: (Test System: AMES SALMONELLA TYPHIMURIUM, Strain/Indicator: TA98, Metabolic Activation: HAMSTER, LIVER, S-9, AROCLOR 1254 (30%), Method: PREINCUBATION) “inactive; negative”; (Test System: AMES SALMONELLA TYPHIMURIUM, Strain/Indicator: TA98, Metabolic Activation: NONE, Method: PREINCUBATION) “inactive; negative”; under setting [4], “inactive; negative”; (Test System: AMES SALMONELLA TYPHIMURIUM, Strain/Indicator: TA98, Metabolic Activation: RAT, LIVER, S-9, AROCLOR 1254 (30%), Method: PREINCUBATION) “inactive; negative”; (Test System: AMES SALMONELLA TYPHIMURIUM, Strain/Indicator: TA98, Metabolic Activation: RAT, LIVER, S-9, BETA-NAPHTHOFLAVONE AND PHENOBARBITAL, Method: PREINCUBATION) “active; positive”; under setting [5], “inactive; negative”. The mutagenic call (Test System: AMES SALMONELLA TYPHIMURIUM, Strain/Indicator: TA100, Metabolic Activation: HAMSTER, LIVER, S-9, AROCLOR 1254 (30%), Method: PREINCUBATION) was “inactive; negative”; the mutagenic call under setting [6] was “inactive; negative”; the mutagenic call under setting [7] was “inactive; negative”; the mutagenic call (Test System: AMES SALMONELLA TYPHIMURIUM, Strain/Indicator: TA100, Metabolic Activation: RAT, LIVER, S-9, AROCLOR 1254 (30%), Method: PREINCUBATION) was “inactive; negative”; the mutagenic call (Test System: AMES SALMONELLA TYPHIMURIUM, Strain/Indicator: TA1535, Metabolic Activation: HAMSTER, LIVER, S-9, AROCLOR 1254 (5%), Method: PREINCUBATION) was “inactive; negative”; the mutagenic call under setting [8] was “inactive; negative”. The mutagenic call reads like this: (Test System: AMES SALMONELLA TYPHIMURIUM, Strain/Indicator: TA1535, Metabolic Activation: HAMSTER, LIVER, S-9, AROCLOR 1254 (30%), Method: PREINCUBATION) “inactive; negative”; under setting [9], “inactive; negative”; (Test System: AMES SALMONELLA TYPHIMURIUM, Strain/Indicator: TA1535, Metabolic Activation: RAT, LIVER, S-9, AROCLOR 1254 (5%), Method: PREINCUBATION) “inactive; negative”; under setting [10], “inactive; negative”; (Test System: AMES SALMONELLA TYPHIMURIUM, Strain/Indicator: TA1535, Metabolic Activation: RAT, LIVER, S-9, AROCLOR 1254 (30%), Method: PREINCUBATION) “inactive; negative”; (Test System: AMES SALMONELLA TYPHIMURIUM, Strain/Indicator: TA1537, Metabolic Activation: HAMSTER, LIVER, S-9, AROCLOR 1254 (10%), Method: PREINCUBATION) “inactive; negative”. In addition, the mutagenic call runs as follows: (Test System: AMES SALMONELLA TYPHIMURIUM, Strain/Indicator: TA1537, Metabolic Activation: NONE, Method: PREINCUBATION) “inactive; negative”; (Test System: AMES SALMONELLA TYPHIMURIUM, Strain/Indicator: TA1537, Metabolic Activation: RAT, LIVER, S-9, AROCLOR 1254 (10%), Method: PREINCUBATION) “inactive; negative”; (Test System: AMES SALMONELLA TYPHIMURIUM, Strain/Indicator: TA1538, Metabolic Activation: NONE, Method: STANDARD PLATE) “inactive; negative”; (Test System: AMES SALMONELLA TYPHIMURIUM, Strain/Indicator: TA1538, Metabolic Activation: RAT, LIVER, S-9, AROCLOR 1254, Method: STANDARD PLATE) “inactive; negative”; (Test System: CHINESE HAMSTER V-79, Strain/Indicator: V-79/6-THIOGUANINE, Metabolic Activation: NONE, Method: SUSPENSION/PLATE) “inactive; negative”; (Test System: CHINESE HAMSTER V-79, Strain/Indicator: V-79/6-THIOGUANINE, Metabolic Activation: RAT, LIVER, S-9, PHENOBARBITAL AND BETA-NAPHTHOFLAVONE, Method: SUSPENSION/PLATE) “inactive; negative”.

Consider `O=C1c2cc(O)cc(O)c2C(=O)c2c(O)cc(CO)cc21`, for which the mutagenic call runs as follows: (Test System: AMES SALMONELLA TYPHIMURIUM, Strain/Indicator: TA1537, Metabolic Activation: RAT, LIVER, S-9, PCB, Method: STANDARD PLATE) “active; positive”; (Test System: AMES SALMONELLA TYPHIMURIUM, Strain/Indicator: TA1537, Metabolic Activation: RAT, LIVER, S-9, POLYCHLORINATED BIPHENYLS, Method: STANDARD PLATE) “active; positive”.

In the case of `OCC(O)CCl` (centres undefined), the mutagenic call under setting [1] is “inactive; negative”; the mutagenic call under setting [2] is “inactive; negative”; the mutagenic call under setting [3] was “inactive; negative”; the mutagenic call under setting [4] is “inactive; negative”; the mutagenic call (Test System: AMES SALMONELLA TYPHIMURIUM, Strain/Indicator: TA98, Metabolic Activation: RAT, LIVER, S-9, KANECHLOR 500, Method: PREINCUBATION) was “inactive; negative”; the mutagenic call under setting [5] was “active; positive”. Further, the mutagenic call under setting [6] is “active; positive”; the mutagenic call under setting [7] is “active; positive”; the mutagenic call (Test System: AMES SALMONELLA TYPHIMURIUM, Strain/Indicator: TA100, Metabolic Activation: RAT, LIVER, S-9, KANECHLOR 500, Method: PREINCUBATION) was “inactive; negative”; the mutagenic call under setting [8] was “active; positive”; the mutagenic call under setting [9] is “active; positive”; the mutagenic call under setting [10] is “active; positive”.

Consider `O/N=C/c1ccncc1`, for which the mutagenic call (Test System: AMES SALMONELLA TYPHIMURIUM, Strain/Indicator: TA102, Metabolic Activation: RAT, LIVER, S-9, PHENOBARBITAL AND 5,6-BENZOFLAVONE, Method: STANDARD PLATE) is “inactive; negative”; the mutagenic call (Test System: AMES SALMONELLA TYPHIMURIUM, Strain/Indicator: TA2638, Metabolic Activation: RAT, LIVER, S-9, PHENOBARBITAL AND 5,6-BENZOFLAVONE, Method: STANDARD PLATE) is “inactive; negative”; the mutagenic call (Test System: E. COLI, Strain/Indicator: WP2 (PKM101), Metabolic Activation: RAT, LIVER, S-9, PHENOBARBITAL AND 5,6-BENZOFLAVONE, Method: STANDARD PLATE) is “inactive; negative”; the mutagenic call (Test System: E. COLI, Strain/Indicator: WP2 UVRA (PKM101), Metabolic Activation: RAT, LIVER, S-9, PHENOBARBITAL AND 5,6-BENZOFLAVONE, Method: STANDARD PLATE) is “active; positive”.

Consider `CCn1nc(C(=O)O)c(=O)c2cc3c(cc21)OCO3`, for which, for the setting “Test System: AMES SALMONELLA TYPHIMURIUM, Strain/Indicator: TA102, Metabolic Activation: NONE, Method: STANDARD PLATE”, the mutagenic call is “active; positive”.

These data come from PubChem BioAssay AID1259407 (Chemical Carcinogenesis Research Information System (CCRIS), 2018).
